Assay results reported in patent US9809623B2, “α4β7 peptide monomer and dimer antagonists” (Protagonist Therapeutics, Inc., priority 2014, dated 2017).
Numbered stars: 1 amine (or outer) side, 2 acyl side, 3 side chain; on linkers, the order of the positions; unused ones are H or OH. Bridge positions count the residues as written; N and C are the ends. Square brackets hold non-standard residues; d marks the D form. Peptide text beside a SMILES is read from it. I, II: the chains in the order shown. 2Nal = N[C@@H](Cc1ccc2ccccc2c1)C(=O)O; Diglycolyl = O=C(COCC(=O)[*:2])[*:1]; NMeR = CN[C@@H](CCCNC(=N)N)C(=O)O; β3hE = N[C@@H](CCC(=O)O)CC(=O)O; Pen = CC(C)(S)[C@H](N)C(=O)O

How the values were obtained:
[1] = Simulated Gastric Fluid (SGF) Assay; type: in vitro ADME; conditions: pig, simulated gastric fluid (SGF) with porcine pepsin, pH 2; Table 4-C, t1/2
Description: SGF was prepared by adding 20 mg NaCl, 32 mg porcine pepsin (MP Biochemicals, catalog 02102599), and 70 μl HCl to 10 ml water (final pH=2). Aliquots of SGF (0.5 ml each) were pre-warmed at 37° C. For each peptide tested, to start the reaction, 1 μl of peptide stock solution (10 mM in DMSO) was added to 0.5 ml SGF and thoroughly mixed such that the final peptide concentration was 20 μM. The reactions were incubated at 37° C. with gentle shaking. At each time point (0, 15, 30, 60 min), 50 μl aliquots were removed and added to 200 ul acetonitrile containing 0.1% formic acid to quench the reaction. Samples were stored at 4° C. until the end of the experiment and centrifuged at 10,000 rpm for 5 minutes. Aliquots of the supernatant were removed, diluted 1:1 into distilled water containing internal standard, and analyzed by LCMS/MS. Percent remaining at each timepoint was calculated based on the peak area response ratio of test compound to internal standard. Time 0 was set to 100%, and all later timepoints were calculated relative to time 0. Half-lives were calculated by fitting to a first-order exponential decay equation using GraphPad.

Plasma Stability Assay = type: in vitro ADME; conditions: rat, Table 4-C, t1/2
Description: 0.5 mL of rat plasma (one tube per peptide, volume depends on how many time points are to be collected, 50 μL per time point) was added to each well of a 96-well polypropylene plate, and the tubes were incubated in a heated water bath, preset to 37° C. with gentle shaking. 1 μL of 10 mM peptide stock solution was added to each tub, and then 200 μL of Acetonitrile w/0.1% Formic Acid was added to each tube (1:4). Samples were collected at the following time points: 0, 10, 30, 45, 60, 120, 180 mins. When all time points were collected, the plate was centrifuged at 5000 rpm for 5 mins. LCM analysis was performed by pipetting 100 μL of each sample to appropriate well of a 96-well deep plate. 100 μL of an internal standard peptide (1 ug/mL) was added in Mobile Phase A to each well. The plate was vortexed and injected

α4β7 = target: T1, α4β7 (Mus musculus, UniProt P26011+Q00651); assay: α4β7 Cell Adhesion Assay (Mouse), TK1 cells; type: cell-based; conditions: Table 4-B; read-out: Cell Adhesion α4β7 Mouse IC50
T1 construct: host or cells: TK1 mouse T cells
T1 sequence (Q00651 34-1039 limits assumed): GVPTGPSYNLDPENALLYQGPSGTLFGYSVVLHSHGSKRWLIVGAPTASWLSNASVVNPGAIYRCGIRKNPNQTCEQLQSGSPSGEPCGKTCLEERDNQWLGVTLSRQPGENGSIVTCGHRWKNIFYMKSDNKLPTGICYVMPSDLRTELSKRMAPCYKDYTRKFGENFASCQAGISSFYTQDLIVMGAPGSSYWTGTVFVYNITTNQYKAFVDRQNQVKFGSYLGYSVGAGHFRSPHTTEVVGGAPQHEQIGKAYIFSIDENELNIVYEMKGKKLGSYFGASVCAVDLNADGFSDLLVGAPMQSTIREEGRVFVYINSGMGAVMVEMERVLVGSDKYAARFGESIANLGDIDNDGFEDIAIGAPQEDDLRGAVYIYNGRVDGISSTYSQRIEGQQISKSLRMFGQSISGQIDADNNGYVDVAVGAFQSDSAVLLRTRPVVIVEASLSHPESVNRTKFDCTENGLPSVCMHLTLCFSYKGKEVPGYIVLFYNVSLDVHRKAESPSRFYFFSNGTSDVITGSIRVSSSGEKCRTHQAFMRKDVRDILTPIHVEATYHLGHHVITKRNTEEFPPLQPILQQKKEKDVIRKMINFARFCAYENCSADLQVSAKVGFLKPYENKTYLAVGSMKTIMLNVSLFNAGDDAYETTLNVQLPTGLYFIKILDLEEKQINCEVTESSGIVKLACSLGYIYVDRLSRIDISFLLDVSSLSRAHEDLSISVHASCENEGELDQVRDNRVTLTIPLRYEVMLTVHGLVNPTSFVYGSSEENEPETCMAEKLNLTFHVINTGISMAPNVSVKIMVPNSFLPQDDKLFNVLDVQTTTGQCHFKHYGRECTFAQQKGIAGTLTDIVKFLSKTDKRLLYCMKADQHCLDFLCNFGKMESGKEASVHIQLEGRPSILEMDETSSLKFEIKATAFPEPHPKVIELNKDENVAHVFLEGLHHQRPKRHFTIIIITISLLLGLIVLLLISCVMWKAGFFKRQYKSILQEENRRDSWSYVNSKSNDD
T1 sequence (P26011 20-806): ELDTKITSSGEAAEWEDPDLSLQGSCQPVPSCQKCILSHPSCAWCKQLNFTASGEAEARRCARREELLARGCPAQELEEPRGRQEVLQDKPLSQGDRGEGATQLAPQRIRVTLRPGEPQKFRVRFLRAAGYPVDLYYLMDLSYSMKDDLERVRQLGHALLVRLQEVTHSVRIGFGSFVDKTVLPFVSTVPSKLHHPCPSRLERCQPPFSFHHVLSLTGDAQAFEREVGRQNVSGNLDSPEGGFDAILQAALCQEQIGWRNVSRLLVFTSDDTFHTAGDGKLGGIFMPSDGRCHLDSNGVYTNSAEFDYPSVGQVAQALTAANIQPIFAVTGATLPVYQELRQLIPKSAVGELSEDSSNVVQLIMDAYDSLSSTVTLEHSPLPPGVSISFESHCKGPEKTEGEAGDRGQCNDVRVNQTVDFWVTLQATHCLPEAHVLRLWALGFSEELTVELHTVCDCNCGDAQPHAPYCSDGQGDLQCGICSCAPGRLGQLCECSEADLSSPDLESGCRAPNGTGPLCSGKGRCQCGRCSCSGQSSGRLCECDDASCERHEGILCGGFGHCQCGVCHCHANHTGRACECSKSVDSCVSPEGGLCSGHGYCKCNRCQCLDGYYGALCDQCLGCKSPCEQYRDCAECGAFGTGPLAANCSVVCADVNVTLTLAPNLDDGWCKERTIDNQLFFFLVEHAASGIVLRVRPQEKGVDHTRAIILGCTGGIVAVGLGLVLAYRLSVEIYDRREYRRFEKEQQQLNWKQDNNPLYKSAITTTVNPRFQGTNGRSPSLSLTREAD
Method in brief: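 Mouse TK1 cells in DMEM with 0.1% BSA, 10 mM HEPES pH 7 and 1 mM MnCl2 were allowed to adhere for 30-45 min at 37 °C to plates coated with recombinant human MAdCAM-1 Fc (200 ng/well) in the presence of serially diluted peptides. Adherent cells were quantified by MTT absorbance at 570 nm, with no-cell background subtracted for dose response.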

Which half-life at 20 μM [1] does the source give for `CC(=O)N[C@@H]1C(=O)N[C@@H](CCCNC(=N)N)C(=O)N[C@@H](CO)C(=O)N[C@@H](CC(=O)O)C(=O)N[C@@H]([C@@H](C)O)C(=O)N[C@@H](CC(C)C)C(=O)N[C@H](C(=O)N[C@H](CCCCNC(=O)COCC(=O)NCCCC[C@@H](NC(=O)[C@@H]2CSSC(C)(C)[C@H](NC(C)=O)C(=O)N[C@@H](CCCNC(=N)N)C(=O)N[C@@H](CO)C(=O)N[C@@H](CC(=O)O)C(=O)N[C@@H]([C@@H](C)O)C(=O)N[C@@H](CC(C)C)C(=O)N2)C(N)=O)C(N)=O)CSSC1(C)C` [compound 207, (Ac-Pen-R-S-D-T-L-C-k-NH2)2-DIG] (I: Ac-[Pen]RSDTLC[dK]-NH2 / II: Ac-[Pen]RSDTLC[dK]-NH2; disulfide I:1-I:7, II:1-II:7 (inferred); linker I:8-II:8 via Diglycolyl (inferred)) here?
The half-life at 20 μM was over 1 h.

What does the source list for `CC(=O)N[C@H]1CSSC[C@@H](C(=O)NCC(=O)N[C@@H](CCC(=O)O)C(=O)N[C@@H](CCCCN)C(=O)O)NC(=O)[C@H](CC(C)C)NC(=O)[C@H]([C@@H](C)O)NC(=O)[C@H](CC(=O)O)NC(=O)[C@H](CO)NC(=O)[C@H](CCCNC(=N)N)N(C)C1=O` [compound 199, Ac-C-N-Me-R-S-D-T-L-C-G-E-K-OH] (Ac-C[NMeR]SDTLCGEK-OH; disulfide 1-7)?
half-life at 20 μM [1]: > 6 h; half-life at 20 μM (Plasma Stability Assay): 1.35 h

For `CC(=O)N[C@H]1CSSC(C)(C)[C@@H](C(=O)N[C@H](CCCCN)C(N)=O)NC(=O)[C@H](CC(C)C)NC(=O)[C@H]([C@@H](C)O)NC(=O)[C@H](CC(=O)O)NC(=O)[C@H](CO)NC(=O)[C@H](CCCNC(=N)N)N(C)C1=O` [compound 202, Ac-C-N-Me-R-S-D-T-L-Pen-k-NH2] (Ac-C[NMeR]SDTL[Pen][dK]-NH2; disulfide 1-7), which half-life at 20 μM (Plasma Stability Assay) is on record?
The half-life at 20 μM was over 6 h.

With `CC(=O)N[C@@H]1C(=O)N(C)[C@@H](CCCNC(=N)N)C(=O)N[C@@H](CO)C(=O)N[C@@H](CC(=O)O)C(=O)N[C@@H]([C@@H](C)O)C(=O)N[C@@H](CC(C)C)C(=O)N[C@H](C(=O)N[C@@H](Cc2c[nH]c3ccccc23)C(=O)N[C@@H](CCC(=O)O)CC(=O)N[C@H](CCCCNC(=O)COCC(=O)NCCCC[C@@H](NC(=O)C[C@H](CCC(=O)O)NC(=O)[C@H](Cc2c[nH]c3ccccc23)NC(=O)[C@H]2NC(=O)[C@H](CC(C)C)NC(=O)[C@H]([C@@H](C)O)NC(=O)[C@H](CC(=O)O)NC(=O)[C@H](CO)NC(=O)[C@H](CCCNC(=N)N)N(C)C(=O)[C@@H](NC(C)=O)C(C)(C)SSC2(C)C)C(N)=O)C(N)=O)C(C)(C)SSC1(C)C` [compound 213, [Ac-Pen-(N-Me-Arg)-Ser-Asp-Thr-Leu-Pen-Trp-(β-homoGlu)-(D-Lys)-NH2]2-DIG] (I: Ac-[Pen][NMeR]SDTL[Pen]W[β3hE][dK]-NH2 / II: Ac-[Pen][NMeR]SDTL[Pen]W[β3hE][dK]-NH2; disulfide I:1-I:7, II:1-II:7; linker I:10-II:10 via Diglycolyl) as the compound, how does the IC50 (α4β7) read?
Its IC50 is 4.2 nM.

And the half-life at 20 μM [1]?
The half-life at 20 μM was over 3 h.

What does the source list for `CC(=O)N[C@H]1CSSC[C@@H](C(=O)NCC(=O)N[C@@H](CCC(=O)O)C(=O)N[C@@H](CCCCNC(=O)COCC(=O)NCCCC[C@H](NC(=O)[C@H](CCC(=O)O)NC(=O)CNC(=O)[C@@H]2CSSC[C@H](NC(C)=O)C(=O)N(C)[C@@H](CCCNC(=N)N)C(=O)N[C@@H](CO)C(=O)N[C@@H](CC(=O)O)C(=O)N[C@@H]([C@@H](C)O)C(=O)N[C@@H](CC(C)C)C(=O)N2)C(=O)O)C(=O)O)NC(=O)[C@H](CC(C)C)NC(=O)[C@H]([C@@H](C)O)NC(=O)[C@H](CC(=O)O)NC(=O)[C@H](CO)NC(=O)[C@H](CCCNC(=N)N)N(C)C1=O` [compound 201, (Ac-C-N-Me-R-S-D-T-L-C-G-E-K-OH)2-DIG] (I: Ac-C[NMeR]SDTLCGEK-OH / II: Ac-C[NMeR]SDTLCGEK-OH; disulfide I:1-I:7, II:1-II:7 (inferred); linker I:10-II:10 via Diglycolyl (inferred))?
half-life at 20 μM [1]: > 6 h; half-life at 20 μM (Plasma Stability Assay): 2.02 h

With `CC(=O)N[C@@H]1C(=O)N(C)[C@@H](CCCNC(=N)N)C(=O)N[C@@H](CO)C(=O)N[C@@H](CC(=O)O)C(=O)N[C@@H]([C@@H](C)O)C(=O)N[C@@H](CC(C)C)C(=O)N[C@H](C(=O)N[C@@H](Cc2ccc3ccccc3c2)C(=O)N[C@@H](CCC(=O)O)C(=O)N[C@H](CCCCNC(=O)COCC(=O)NCCCC[C@@H](NC(=O)[C@H](CCC(=O)O)NC(=O)[C@H](Cc2ccc3ccccc3c2)NC(=O)[C@H]2NC(=O)[C@H](CC(C)C)NC(=O)[C@H]([C@@H](C)O)NC(=O)[C@H](CC(=O)O)NC(=O)[C@H](CO)NC(=O)[C@H](CCCNC(=N)N)N(C)C(=O)[C@@H](NC(C)=O)C(C)(C)SSC2(C)C)C(N)=O)C(N)=O)C(C)(C)SSC1(C)C` [compound 212, (Ac-Pen-N-Me-R-S-D-T-L-Pen-2-Nal-E-k-NH2)2-DIG] (I: Ac-[Pen][NMeR]SDTL[Pen][2Nal]E[dK]-NH2 / II: Ac-[Pen][NMeR]SDTL[Pen][2Nal]E[dK]-NH2; disulfide I:1-I:7, II:1-II:7 (inferred); linker I:10-II:10 via Diglycolyl (inferred)) as the compound, how does the half-life at 20 μM [1] read?
Its half-life at 20 μM is 0.65 h.

What does the source list for `CC(=O)N[C@@H]1C(=O)N(C)[C@@H](CCCNC(=N)N)C(=O)N[C@@H](CO)C(=O)N[C@@H](CC(=O)O)C(=O)N[C@@H]([C@@H](C)O)C(=O)N[C@@H](CC(C)C)C(=O)N[C@H](C(=O)N[C@@H](Cc2c[nH]c3ccccc23)C(=O)N[C@H](CCC(=O)O)C(=O)N[C@H](CCCCNC(=O)COCC(=O)NCCCC[C@@H](NC(=O)[C@@H](CCC(=O)O)NC(=O)[C@H](Cc2c[nH]c3ccccc23)NC(=O)[C@H]2NC(=O)[C@H](CC(C)C)NC(=O)[C@H]([C@@H](C)O)NC(=O)[C@H](CC(=O)O)NC(=O)[C@H](CO)NC(=O)[C@H](CCCNC(=N)N)N(C)C(=O)[C@@H](NC(C)=O)C(C)(C)SSC2(C)C)C(N)=O)C(N)=O)C(C)(C)SSC1(C)C` [compound 211, (Ac-Pen-N-Me-R-S-D-T-L-Pen-W-e-k-NH2)2-DIG] (I: Ac-[Pen][NMeR]SDTL[Pen]W[dE][dK]-NH2 / II: Ac-[Pen][NMeR]SDTL[Pen]W[dE][dK]-NH2; disulfide I:1-I:7, II:1-II:7 (inferred); linker I:10-II:10 via Diglycolyl (inferred))?
IC50 (α4β7): 7.3 nM; half-life at 20 μM [1]: > 1 h

For `CC(=O)N[C@@H]1C(=O)N(C)[C@@H](CCCNC(=N)N)C(=O)N[C@@H](CO)C(=O)N[C@@H](CC(=O)O)C(=O)N[C@@H]([C@@H](C)O)C(=O)N[C@@H](CC(C)C)C(=O)N[C@H](C(=O)N[C@@H](Cc2c[nH]c3ccccc23)C(=O)N[C@H](CCCCN)C(N)=O)C(C)(C)SSC1(C)C` [compound 208, Ac-Pen-N-Me-R-S-D-T-L-Pen-W-k-NH2] (Ac-[Pen][NMeR]SDTL[Pen]W[dK]-NH2; disulfide 1-7), which half-life at 20 μM [1] is on record?
Its half-life at 20 μM is over 6 h.

Which half-life at 20 μM (Plasma Stability Assay) does the source give for `CC(=O)N[C@H]1CSSC(C)(C)[C@@H](C(=O)N[C@@H](CCC(=O)O)C(=O)N[C@H](CCCCNC(=O)COCC(=O)NCCCC[C@@H](NC(=O)[C@H](CCC(=O)O)NC(=O)[C@H]2NC(=O)[C@H](CC(C)C)NC(=O)[C@H]([C@@H](C)O)NC(=O)[C@H](CC(=O)O)NC(=O)[C@H](CO)NC(=O)[C@H](CCCNC(=N)N)N(C)C(=O)[C@@H](NC(C)=O)CSSC2(C)C)C(N)=O)C(N)=O)NC(=O)[C@H](CC(C)C)NC(=O)[C@H]([C@@H](C)O)NC(=O)[C@H](CC(=O)O)NC(=O)[C@H](CO)NC(=O)[C@H](CCCNC(=N)N)N(C)C1=O` [compound 205, (Ac-C-N-Me-R-S-D-T-L-Pen-E-k-NH2)2-DIG] (I: Ac-C[NMeR]SDTL[Pen]E[dK]-NH2 / II: Ac-C[NMeR]SDTL[Pen]E[dK]-NH2; disulfide I:1-I:7, II:1-II:7 (inferred); linker I:9-II:9 via Diglycolyl (inferred)) here?
The half-life at 20 μM was over 6 h.
